We go through 26 compounds from ChEMBL document CHEMBL1149219, “Binding of beta-carbolines at imidazoline I2 receptors: a structure-affinity investigation” (Bioorg Med Chem Lett, 2004).

A short description of test [1]: Binding affinity at rat imidazoline receptor I-2.
Test [2] addresses T1, Alpha-2A adrenergic receptor (Rattus norvegicus, UniProt P22909).
T1 sequence (P22909 whole entry): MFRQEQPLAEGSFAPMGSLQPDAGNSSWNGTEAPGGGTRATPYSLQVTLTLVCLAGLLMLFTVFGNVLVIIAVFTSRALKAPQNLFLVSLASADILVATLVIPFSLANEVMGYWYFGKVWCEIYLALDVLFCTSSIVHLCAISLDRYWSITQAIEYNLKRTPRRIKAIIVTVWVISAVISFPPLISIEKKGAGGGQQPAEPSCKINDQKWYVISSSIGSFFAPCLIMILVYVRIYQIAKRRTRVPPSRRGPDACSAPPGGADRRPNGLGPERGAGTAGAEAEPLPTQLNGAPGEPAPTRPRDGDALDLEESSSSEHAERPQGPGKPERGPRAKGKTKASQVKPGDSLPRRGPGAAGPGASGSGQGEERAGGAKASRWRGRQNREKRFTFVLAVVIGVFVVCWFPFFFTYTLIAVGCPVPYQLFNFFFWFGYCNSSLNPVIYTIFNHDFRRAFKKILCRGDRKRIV
As to the kind of experiment: Binding affinity at alpha-2 adrenergic receptor of rat.

Test [3] has as its target T2, Adrenergic receptor alpha-2 (Rattus norvegicus, UniProt P22086+P19328+P22909).
T2 sequence (P22086 whole entry): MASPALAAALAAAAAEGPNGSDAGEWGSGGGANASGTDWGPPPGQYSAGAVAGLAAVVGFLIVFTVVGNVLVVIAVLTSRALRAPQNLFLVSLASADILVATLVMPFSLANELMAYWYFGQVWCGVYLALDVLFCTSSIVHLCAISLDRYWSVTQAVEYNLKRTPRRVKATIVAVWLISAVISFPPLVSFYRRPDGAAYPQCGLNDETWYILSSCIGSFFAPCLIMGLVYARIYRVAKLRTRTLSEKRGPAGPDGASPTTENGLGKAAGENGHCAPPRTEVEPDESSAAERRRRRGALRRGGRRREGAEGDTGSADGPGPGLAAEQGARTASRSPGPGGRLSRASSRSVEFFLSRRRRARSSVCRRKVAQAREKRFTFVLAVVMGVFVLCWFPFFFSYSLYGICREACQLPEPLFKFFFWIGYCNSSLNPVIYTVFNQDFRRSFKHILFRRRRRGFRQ
T2 sequence (P19328 whole entry): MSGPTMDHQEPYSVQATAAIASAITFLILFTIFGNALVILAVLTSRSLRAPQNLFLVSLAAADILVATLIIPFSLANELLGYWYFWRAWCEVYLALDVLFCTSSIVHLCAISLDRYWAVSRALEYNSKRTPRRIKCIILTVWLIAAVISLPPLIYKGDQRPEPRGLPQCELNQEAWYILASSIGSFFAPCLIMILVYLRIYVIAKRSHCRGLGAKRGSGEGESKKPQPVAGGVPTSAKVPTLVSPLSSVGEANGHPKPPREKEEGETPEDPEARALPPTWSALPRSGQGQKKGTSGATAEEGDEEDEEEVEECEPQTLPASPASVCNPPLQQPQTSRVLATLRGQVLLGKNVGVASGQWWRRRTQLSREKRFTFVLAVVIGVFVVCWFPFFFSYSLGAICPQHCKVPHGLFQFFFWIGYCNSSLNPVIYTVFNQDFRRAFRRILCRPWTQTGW
T2 sequence (P22909 whole entry): T1 sequence (P22909 whole entry)
As to the kind of experiment: Binding affinity at alpha-2 adrenergic receptors of rat. Format: protein assay.

The target of test [4] is 5-hydroxytryptamine receptor 2A (Rattus norvegicus, UniProt P14842). The test is described as follows: Binding affinity at 5-hydroxytryptamine 2A receptor of rat.
For test [5], the target named is T3, Alpha-2B adrenergic receptor (Rattus norvegicus, UniProt P19328).
T3 sequence (P19328 whole entry): T2 sequence (P19328 whole entry)
The test is described as follows: Binding affinity at alpha 2B adrenergic receptor of rat.

5-hydroxytryptamine receptor 2A, sequence (P14842 whole entry): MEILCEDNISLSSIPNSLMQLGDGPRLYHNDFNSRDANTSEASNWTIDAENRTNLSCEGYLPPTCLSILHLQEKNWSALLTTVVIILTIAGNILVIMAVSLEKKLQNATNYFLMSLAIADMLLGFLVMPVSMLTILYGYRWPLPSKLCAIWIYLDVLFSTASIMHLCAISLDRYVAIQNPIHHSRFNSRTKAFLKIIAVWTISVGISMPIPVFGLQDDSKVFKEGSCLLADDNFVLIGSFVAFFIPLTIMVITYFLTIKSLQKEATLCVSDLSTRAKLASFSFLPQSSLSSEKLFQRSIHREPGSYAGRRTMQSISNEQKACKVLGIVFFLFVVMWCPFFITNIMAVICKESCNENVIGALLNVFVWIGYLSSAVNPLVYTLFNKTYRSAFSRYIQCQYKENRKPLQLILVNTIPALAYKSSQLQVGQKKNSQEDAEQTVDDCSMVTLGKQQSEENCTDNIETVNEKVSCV

As a reminder, the Ki is a dissociation constant, usually derived from enzyme kinetics or from competition with a known ligand. Read a high Ki as lower affinity. With `COc1cc(Br)c2c3c([nH]c2c1)CNCC3`, affinity in test [1] was put at a Ki of 1740 nM.

Take `Brc1cccc2c3c([nH]c12)CNCC3`: the results for the inhibition constant (Ki) in test [2] and in test [1] were 460 nM and 3.6 nM, respectively.

As to `Brc1ccc2[nH]c3c(c2c1)CCN=C3`, the inhibition constant (Ki) in test [3] came out at 5290 nM; in test [1] it was 790 nM.

On to `c1ccc2c3c([nH]c2c1)CNCC3` [TRYPTOLINE], for which the affinity in test [1] corresponds to a Ki of 9.4 nM.

As for `Brc1cccc2[nH]c3c(c12)CCNC3`, the values for the Ki in test [3] and in test [1] were 390 nM and 5.4 nM, respectively.

With `COc1ccc2c(c1)[nH]c1c(C)nccc12` [HARMINE], in test [1], the inhibition constant (Ki) was 49 nM.

In the case of `C1=NCCc2c1[nH]c1ccccc21`, the inhibition constant Ki in test [3] worked out at 700 nM; in test [1], 7.3 nM.

With `COc1ccc2c3c([nH]c2c1)CNCC3`, the inhibitory constant (Ki) in test [4] was greater than 1000 nM; in test [5] it was 140 nM.

For the compound `COc1cccc2c3c([nH]c12)CNCC3`, the Ki worked out at 640 nM in test [3] and 270 nM in test [1].

As for `Brc1ccc2c3c([nH]c2c1)C=NCC3`, the inhibition constant (Ki) amounted to 10700 nM in test [3] and 400 nM in test [1].

In the case of `COc1ccc2[nH]c3c(c2c1)CCNC3`, the inhibition constant Ki was determined as 7830 nM in test [3] and 1640 nM in test [1].

As for `NCCc1c[nH]c2ccccc12` [TRYPTAMINE], the Ki in test [3] was determined as 19000 nM; in test [1] it was 5400 nM.

In the case of `Brc1ccc2c3c([nH]c2c1)CNCC3`, the values for the Ki in test [3] and in test [1] were 15500 nM and 1290 nM, respectively.

Regarding `COc1cccc2[nH]c3c(c12)CCNC3`, the Ki in test [3] stood at 825 nM; in test [1] it was 300 nM.

Regarding `COc1cccc2c3c([nH]c12)C=NCC3`, the results for the Ki in test [3] and in test [1] were 5020 nM and 160 nM, respectively.

Consider `Brc1cccc2c3c([nH]c12)C=NCC3`, for which the Ki in test [3] amounted to 815 nM; in test [1], 17 nM.

On to `Brc1cccc2[nH]c3c(c12)CCN=C3`, for which the Ki in test [4] was determined as 180 nM; in test [3] it was 3160 nM; in test [1], 86 nM.

Regarding `Cn1c2c(c3ccccc31)CCNCC2` [PNU-22394], the figures for the Ki in test [3] and in test [1] were 415 nM and 1030 nM, respectively.

Regarding `COc1ccc2c(c1)[nH]c1cnccc12`, the Ki in test [1] was found to be 87 nM.

Regarding `COc1ccc2c3c([nH]c2c1)C=NCC3` [CGS-19281A], the inhibitory constant (Ki) was greater than 10000 nM in test [3] and 18 nM in test [1].

Consider `Brc1ccc2[nH]c3c(c2c1)CCNC3`, for which the inhibitory constant (Ki) in test [3] was 11500 nM; in test [1], 2780 nM.

Regarding `NCc1c[nH]c2ccccc12`, the inhibition constant Ki in test [3] was found to be 14700 nM; in test [1], 3440 nM.

Regarding `Cn1c2c(c3ccccc31)CCNC2`, the affinity in test [1] corresponds to a Ki of 5.4 nM.

For the compound `COc1ccc2[nH]c3c(c2c1)CCN=C3`, the inhibitory constant (Ki) worked out at 2190 nM in test [3] and 480 nM in test [1].

In the case of `COc1cccc2[nH]c3c(c12)CCN=C3`, the inhibition constant (Ki) in test [3] was 330 nM; in test [1], 84 nM.

For the compound `c1ccc2c3c([nH]c2c1)CCNC3`, the Ki in test [3] was 600 nM; in test [1], 4.7 nM.
